Laboratory results taken from patent US7893071B2, “Synthesis and evaluation of novel phthalimide mimics as anti-angiogenic” (University of Virginia Patent Foundation, priority 2001, dated 2011).

Tests used:
[1] = tested on: angiogenesis induced by basic fibroblast growth factor (bFGF); settings: cited from earlier work
angiogenesis = settings: oral; cited from earlier work
endothelial cells = settings: in vitro; cited from earlier work
[2] = tested on: human vascular endothelial cells (HUVECS); assay: Endothelial cell proliferation assay ([3H]-thymidine incorporation); type: cell-based; settings: HUVEC, 20% serum, preliminary IC50 data, read-out: Inhibition of Endothelial Cell Proliferation (IC50 μM)
Method: Endothelial Cell Proliferation Assay.
The human vascular endothelial cells (HUVECS) were cultured to peri-confluence (80%) in 20% serum and treated with thalidomide (standard) or its analog (40-400 μM). After 20 h, [^3H]-thymidine (2 μCi/ml) was added to the culture medium for 2-4 h. The [^3H]-thymidine incorporation was stopped with ice-cold PBS (3 washes) and the cells were incubated with cold 10% trichloroacetic acid (TCA) for 10 min at 4° C. The cells were further incubated with TCA at room temperature for 10 min and washed three times with PBS. The cells were solubilized overnight with 1N NaOH and neutralized with an equivalent amount of 1N HCl before radioactivity was determined. The anti-proliferative activity of thalidomide or its analog was computed as a percent inhibition of HUVECS mitogenic response to 20% serum (fetal calf serum).

[3] = tested on: corneal angiogenesis induced by vascular endothelial growth factor (VEGF); settings: cited from earlier work

| SMILES | IC50 [2] | other results |
| --- | --- | --- |
| O=C1CCC(N2C(=O)c3ccccc3C2=O)C(=O)N1 (stereo not drawn) [Compound 1, thalidomide] | 200 µM | effect on angiogenesis, bFGF induced corneal micropocket ([1]; rabbit): inhibitory effects; effect on angiogenesis, orally in mice models (angiogenesis): inhibitory effects; endothelial cell proliferation in treated cultures (endothelial cells): significant decrease; inhibition of corneal angiogenesis ([3]; rabbits, pellet with 500 or 750 ng VEGF, two daily feedings of 200 mg/kg, after the 5th day of treatment, P<0.0001): statistically significant inhibition |
| O=C1c2ccccc2C(=O)N1C1CCCc2ccccc21 (stereo not drawn) [Compound 7] | > 400 µM | – |
| CCOc1ccccc1N1C(=O)c2ccccc2C1=O [Compound 50] | 110 µM | – |
| O=C1CC[C@H](N2C(=O)c3ccccc3C2=O)C(=O)N1 (single isomer, unassigned) [S(−)-enantiomer of thalidomide] | – | anti-angiogenic activity of enantiomers, bFGF-induced corneal neovascularization ([1]; comparison of enantiomers): strongest anti-angiogenic activity; anti-angiogenic activity of enantiomers, VEGF-induced corneal neovascularization ([3]; comparison of enantiomers): strongest anti-angiogenic activity |
| Cc1cc(N)ccc1N1C(=O)c2ccc(Cl)cc2C1=O [Compound 51] | 350 µM | – |
| CCCCCCC(c1ccc(OC)c(OC)c1)N1C(=O)c2ccccc2C1=O (stereo not drawn) [Compound 32] | < 38.5 µM | – |
| O=C1CC(N2C(=O)c3ccccc3C2=O)CC(=O)O1 [Compound 52] | > 400 µM | – |
| O=C1c2ccccc2C(=O)N1c1ccc2c(c1)CCC2 [Compound 5] | 85 µM | – |
| O=C1NC(=O)c2c1cccc2[N+](=O)[O-] [Compound 53] | > 400 µM | – |
| CCC(c1cccc2ccccc12)N1C(=O)c2ccccc2C1=O (stereo not drawn) [Compound 29] | 45 µM | – |
